This is an account of results in patent publication US7223759B2, “Antibacterial 3,5-diaminopiperidine-substituted aromatic and heteroaromatic compounds” (Anadys Pharmaceuticals, Inc., priority 2003, dated 2007).

Each structure is given as a SMILES string.

In the first assay the test system is Escherichia coli (ATCC25922) or Staphylococcus aureus (ATCC25923). Put plainly: Antibacterial MIC, microdilution method in Mueller-Hinton medium. Type of assay: cell-based. The settings on record: Escherichia coli, 18 h, MIC in E. coli or S. aureus; two-fold serial dilutions 64 to 0.5 μg/ml in duplicate; 18 hours of incubation at 35° C.; read-out: Potency (MIC). An outline of the steps:
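Read after 18 h incubation at 35° C, MIC is the lowest compound level that blocked growth. Compounds were tested in duplicate over 64–0.5 μg/ml two-fold dilutions using Mueller-Hinton microdilution per NCCLS standard.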
A word on the MIC: it is the lowest concentration that inhibits growth of the organism. Regarding `CC(=O)c1ccc(Nc2nc(N3CCCCC3)nc(N3CCCCC3)n2)cc1.Cl` [1-{4-[4-((3R,4S)-3-Aminomethyl-4-hydroxy-piperidin-1-yl)-6-((3R,5S)-3,5-diamino-piperidin-1-yl)-[1,3,5]triazin-2-ylammino]-phenyl}-ethanone], the MIC was over 64 µg/mL. On the same count and under the same terms, the same measure for `COc1ccc(Nc2ccc(Nc3nc(N4C[C@H](N)C[C@H](N)C4)nc(N4C[C@H](N)C[C@H](N)C4)n3)cc2)cc1` [N-[4-(4-methoxy-phenylamino)-phenyl]-4,6-Bis-((3R,5S)-3,5-diamino-piperidin-1-yl)-[1,3,5]triazine-2-amine]: under 64 µg/mL; for `COC(=O)c1ccc(Nc2nc(N3CCCCC3)nc(N3CCCCC3)n2)c(O)c1` [44-[4,6-Bis-((3R,5S)-3,5-diamino-piperidin-1-yl)-[1,3,5]triazin-2-ylamino]-3-hydroxy-benzoic acidmethyl ester]: over 64 µg/mL. `Cc1cc(Nc2nc(N3C[C@H](N)C[C@H](N)C3)nc(N3C[C@H](N)C[C@H](N)C3)n2)ccc1NC(=O)c1cc2cccc(O)c2cc1O` [N-{4-[(3,5-dihydroxy-naphthalene-2-carbonyl)-amino]-3-methyl-phenyl]-4,6-Bis-((3R,5S)-3,5-diamino-piperidin-1-yl)-[1,3,5]triazine-2-amine]: the MIC was under 64 µg/mL.

Consider `N[C@@H]1CC(c2nc(NCc3ccco3)nc(N3C[C@H](N)C[C@H](N)C3)n2)C[C@H](N)C1` (stereo partly drawn) [N-furan-2-ylmethyl-44,6-Bis-((3R,5S)-3,5-diamino-piperidin-1-yl)-[1,3,5]triazine-2-amine], for which the minimal inhibitory concentration (MIC) is over 64 µg/mL. Take `Cc1cc(Nc2nc(N3CCCCC3)nc(N3CCCCC3)n2)ccc1N1C(=O)c2ccc(Cl)cc2C1=O.Cl` [N-[4-(5-chloro-1,3-dioxo-1,3-dihydro-isoindol-22-yl)-3-methyl-phenyl]-4,6-Bis-((3R,5S)-3,5-diamino-piperidin-1-yl)-[1,3,5]triazine-2-amine]: the minimum inhibitory concentration (MIC) was under 64 µg/mL.

As for `Cc1cc(Nc2nc(N3C[C@H](N)C[C@H](N)C3)nc(N3C[C@H](N)C[C@H](N)C3)n2)ccc1NC(=O)c1ccc(O)cc1O` [N-[4-(2,4-dihydroxy-benzoylamino)-3-methyl-phenyl]-4,6-Bis-((3R,5S)-3,5-diamino-piperidin-1-yl)-[1,3,5]triazine-2-amine], the MIC was under 16 µg/mL.

The assay is the same for the next values; noted with them: Escherichia coli, 18 h, read-out: Potency (MIC).
As to `CC(=O)c1ccc(Nc2nc(N3C[C@H](N)C[C@H](N)C3)nc(N3CC[C@H](O)[C@@H]3CN)n2)cc1` [1-{4-[4-((2S,3S)-2-Aminomethyl-3-hydroxy-pyrrolidin-1-yl)-6-((3R,5S)-3,5-diamino-piperidin-1-yl)-[1,3,5]triazin-2-ylamino]-phenyl}-ethanone], the MIC is over 64 µg/mL. Still for that read-out and setting: the same measure for `NCc1ccc(NC(=O)CC(=O)c2ccc(Nc3nc(N4C[C@H](N)C[C@H](N)C4)nc(N4C[C@H](N)C[C@H](N)C4)n3)cc2)cc1` [N-{4-[2-(4-aminomethyl-phenylcarbamoyl)-acetyl]-phenyl}-4,6-Bis-((3R,5S)-3,5-diamino-piperidin-1-yl)-[1,3,5]triazine-2-amine]: over 64 µg/mL; for `Cc1ccc(S(=O)(=O)Nc2ccccc2Nc2nc(N3C[C@H](N)C[C@H](N)C3)nc(N3C[C@H](N)C[C@H](N)C3)n2)cc1` [N-[2-(toluene-4-sulfonylamino)-phenyl]-4,6-Bis-((3R,5S)-3,5-diamino-piperidin-1-yl)-[1,3,5]triazine-2-amine]: over 64 µg/mL; for `COc1ccc(NC(=O)c2ccc(C)cc2O)c(Nc2nc(N3C[C@H](N)C[C@H](N)C3)nc(N3C[C@H](N)C[C@H](N)C3)n2)c1` [N-[2-(2-hydroxy-4-methyl-benzoylamino)-5-methoxy-phenyl]-4,6-Bis-((3R,5S)-3,5-diamino-piperidin-1-yl)-[1,3,5]triazine-2-amine]: over 64 µg/mL. On the same count and under the same terms, as for `N[C@@H]1C[C@H](N)CN(c2nc(Nc3ccc(C(=O)Nc4ccc5[nH]cnc5c4)c(O)c3)nc(N3C[C@H](N)C[C@H](N)C3)n2)C1` [N-[4-(1H-benzoimidazol-5-ylcarbamoyl)-3-hydroxy-phenyl]-4,6-Bis-((3R,5S)-3,5-diamino-piperidin-1-yl)-[1,3,5]triazine-2-amine], the figure is under 16 µg/mL; as for `N[C@@H]1C[C@H](N)CN(c2nc(Nc3ccc(NC(=O)c4ccc(F)cc4O)c(O)c3)nc(N3C[C@H](N)C[C@H](N)C3)n2)C1` [N-[4-(4-fluoro-2-hydroxy-benzoylamino)-3-hydroxy-phenyl]-4,6-Bis-((3R,5S)-3,5-diamino-piperidin-1-yl)-[1,3,5]triazine-2-amine], under 16 µg/mL.

For the molecule `N[C@@H]1C[C@H](N)CN(c2nc(Nc3ccc(NC(=O)c4ccc(Cl)cc4O)c(F)c3)nc(N3C[C@H](N)C[C@H](N)C3)n2)C1` [N-[4-(4-chloro-2-hydroxy-benzoylamino)-3-fluoro-phenyl]-4,6-Bis-((3R,5S)-3,5-diamino-piperidin-1-yl)-[1,3,5]triazine-2-amine], the MIC was under 16 µg/mL. Same read-out and setting: as for `COc1ccc(OC)c(NC(=O)CC(=O)c2ccc(Nc3nc(N4C[C@H](N)C[C@H](N)C4)nc(N4C[C@H](N)C[C@H](N)C4)n3)cc2)c1` [N-{4-[2-(2,5-dimethoxy-phenylcarbamoyl)-acetyl]-phenyl}-4,6-Bis-((3R,5S)-3,5-diamino-piperidin-1-yl)-[1,3,5]triazine-2-amine], the figure is under 64 µg/mL. On the same count and under the same terms, the same measure for `NC[C@@H]1C[C@H](N)CN1c1nc(Nc2ccc(NC(=O)c3ccc(O)cc3O)c(O)c2)nc(N2C[C@H](N)C[C@H](N)C2)n1` [N-{4-[4-((2S,4S)-4-Amino-2-aminomethyl-pyrrolidin-1-yl)-6-((3R,5S)-3,5-diamino-piperidin-1-yl)-[1,3,5]triazin-2-ylamino]-2-hydroxy-phenyl}-2,4-dihydroxy-benzamide]: under 16 µg/mL; for `N[C@@H]1C[C@H](N)CN(c2nc(Nc3nc4ccc([N+](=O)[O-])cc4s3)nc(N3C[C@H](N)C[C@H](N)C3)n2)C1` [N-(6-nitro-benzothiazol-2-yl)-4,6-Bis-((3R,5S)-3,5-diamino-piperidin-1-yl)-[1,3,5]triazine-2-amine]: under 16 µg/mL; for `N[C@@H]1C[C@H](N)CN(c2nc(NNc3cc(Cl)cc(Cl)c3)nc(N3C[C@H](N)C[C@H](N)C3)n2)C1` [N-(4,6-Bis-((3R,5S)-3,5-diamino-piperidin-1-yl)-[1,3,5]triazin-2-yl)-N′-(3,5-Dichloro-phenyl)-hydrazine]: under 64 µg/mL. With `CC(C)CCCCCC(=O)Nc1ccc(Nc2nc(N3C[C@H](N)C[C@H](N)C3)nc(N3C[C@H](N)C[C@H](N)C3)n2)cc1O` [N-[3-hydroxy-4-(7-methyl-octanoylamino)-phenyl]-4,6-Bis-((3R,5S)-3,5-diamino-piperidin-1-yl)-[1,3,5]triazine-2-amine], the MIC is under 16 µg/mL. Regarding `COc1cccc(OC)c1CNc1nc(N2C[C@H](N)C[C@H](N)C2)nc(N2C[C@H](N)C[C@H](N)C2)n1` [N-(2,6-dimethoxy-benzyl)-4,6-Bis-((3R,5S)-3,5-diamino-piperidin-1-yl)-[1,3,5]triazine-2-amine], the minimum inhibitory concentration (MIC) is over 64 µg/mL.

Still in this assay, the particulars now being: MIC in E. coli or S. aureus; two-fold serial dilutions 64 to 0.5 μg/ml in duplicate; 18 hours of incubation at 35° C.
Take `NC[C@@H]1C[C@H](N)CN1c1nc(Nc2ccc(NC(=O)C(=O)c3c[nH]c4ccccc34)c(O)c2)nc(N2C[C@H](N)C[C@H](N)C2)n1` [N-{4-[4-((2S,4S)-44-Amino-2-aminomethyl-pyrrolidin-1-yl)-6-((3R,5S)-3,5-diamino-piperidin-1-yl)-[1,3,5]triazin-2-ylamino]-2-hydroxy-phenyl}-2-(1H-indol-3-yl)-2-oxo-acetamide]: the “Potency (MIC)” value was “++ (++ means MIC<16 μg/ml in E. coli or S. aureus)”.
